Assay results reported in ChEMBL document CHEMBL1201862, “PubChem BioAssay data set” (2004).
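In this assay, cells in 96-well plates receive the compound at five concentrations for 48 hours. Endpoints are linearly interpolated between the surrounding concentrations. Here, GI50 denotes the concentration required for 50% inhibition of growth.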 The source made the active and inactive calls. Rule as the data show it: active = GI50 up to about 1.1 µM and inactive = higher.

How the values were obtained:
Experiment in all cases: NCI anticancer screen, dose series, 48 h
RXF 631 = system: RXF 631
M19-MEL = system: M19-MEL
DMS-273 = system: DMS-273
SNB-78 = system: SNB-78
DLD-1 = system: DLD-1
DMS-114 = system: DMS-114
HOP-18 = system: HOP-18
XF498 = system: XF498
KM-20L2 = system: KM-20L2

Row | Compound | GI50 (RXF 631) | GI50 (M19-MEL) | GI50 (DMS-273) | GI50 (SNB-78) | GI50 (DLD-1) | GI50 (DMS-114) | GI50 (HOP-18) | GI50 (XF498) | GI50 (KM-20L2)
1 | O=[N+]([O-])c1ccc(COc2cccc3cccnc23)cc1 | 13.9 µM (inactive) | 15.1 µM (inactive) | 4.53 µM (inactive) | 38.2 µM (inactive) | 13.9 µM (inactive) | 2.19 µM (inactive) | 31.5 µM (inactive) | 19.9 µM (inactive) | 33.3 µM (inactive)
2 | N=C(Nc1nc(-c2ccccn2)cc2ccccc12)c1ccccn1 | 0.01 µM (active) | 0.232 µM (active) | 0.00512 µM (active) | 3.33 µM (inactive) | 0.0019 µM (active) | 0.00108 µM (active) | 0.301 µM (active) | 0.00407 µM (active) | 
3 | Nc1ncnc2c1ncn2C1CCC(CO)O1 (configuration not stated) |  | > 100 µM (inactive) | > 100 µM (inactive) | > 100 µM (inactive) | > 100 µM (inactive) | > 55.6 µM (inactive) | > 100 µM (inactive) | > 90.8 µM (inactive) | > 100 µM (inactive)
4 | Nc1nc(=O)[nH]c2c1cnn2C1CCCCO1 (configuration not stated) | > 100 µM (inactive) |  | > 100 µM (inactive) | > 100 µM (inactive) | 62.7 µM (inactive) |  | > 100 µM (inactive) | > 100 µM (inactive) | > 100 µM (inactive)
5 | CCC(C)CN1C(=O)NC(Cc2ccccc2)C1=O (configuration not stated) |  | > 100 µM (inactive) | > 100 µM (inactive) | > 100 µM (inactive) | > 100 µM (inactive) | > 100 µM (inactive) | 0.119 µM (active) | > 100 µM (inactive) | > 100 µM (inactive)
6 | O=C(Nc1ccc(Cl)cc1Cl)/C(Cl)=C1/Sc2ccccc2NC1=O |  | 37.8 µM (inactive) |  | 44.9 µM (inactive) | 35.4 µM (inactive) | 20.1 µM (inactive) |  | 1.32 µM (inactive) | 61.9 µM (inactive)
7 | CC(C)=CC(=O)Cc1nc2ccccc2[nH]c1=O | > 100 µM (inactive) | > 100 µM (inactive) | > 100 µM (inactive) | > 100 µM (inactive) | > 100 µM (inactive) |  | 37 µM (inactive) |  | > 100 µM (inactive)
8 | C#CCC1(C(=O)OCC)C(=O)c2ccccc2N(C)C1=O (configuration not stated) | > 100 µM (inactive) | > 100 µM (inactive) | > 100 µM (inactive) | > 100 µM (inactive) | > 100 µM (inactive) | > 100 µM (inactive) | > 100 µM (inactive) | 26.7 µM (inactive) | > 100 µM (inactive)
9 | Nc1nc(N)c2nc(-c3ccco3)cnc2n1 | 36 µM (inactive) | > 100 µM (inactive) |  | > 100 µM (inactive) | > 100 µM (inactive) | 38.8 µM (inactive) | 27.6 µM (inactive) | > 100 µM (inactive) | 69.2 µM (inactive)
10 | C/C(CCn1[nH]c(=O)ccc1=O)=N\NC(=O)C(=O)NN | > 100 µM (inactive) | > 100 µM (inactive) | > 100 µM (inactive) |  | > 100 µM (inactive) |  | > 100 µM (inactive) | > 100 µM (inactive) | > 100 µM (inactive)
11 | O=C(O)[C@@H](NS(=O)(=O)c1ccc(F)cc1)c1ccccc1 |  | > 100 µM (inactive) | > 100 µM (inactive) | > 100 µM (inactive) | > 100 µM (inactive) | > 100 µM (inactive) | > 100 µM (inactive) | > 100 µM (inactive) | > 100 µM (inactive)
12 | C=CCc1cc(OC)c2c(c1)C(OC(C)=O)CC(c1ccc(OC)c(OC)c1)O2 (configuration not stated) |  | > 100 µM (inactive) | > 100 µM (inactive) | > 100 µM (inactive) | > 100 µM (inactive) | > 100 µM (inactive) |  |  | > 100 µM (inactive)
13 | C=C(N=[N+]=[N-])c1cn(C2CC(O)C(CO)O2)c(=O)[nH]c1=O (configuration not stated) |  | > 100 µM (inactive) | > 100 µM (inactive) | > 100 µM (inactive) | > 100 µM (inactive) | > 100 µM (inactive) | > 100 µM (inactive) | > 100 µM (inactive) | > 100 µM (inactive)
14 | Cc1c(/C=N/N(C)C)oc2c1cc(O)c1ncccc12 |  |  | 5.31 µM (inactive) |  | 3.67 µM (inactive) | 2.87 µM (inactive) | 1.77 µM (inactive) | 8.38 µM (inactive) | 34.5 µM (inactive)
15 | COc1ccc(Cc2c3cc(OC)c(OC)cc3cc[n+]2C)cc1 | > 10.3 µM (inactive) | 12.6 µM (inactive) | 2.22 µM (inactive) | 58.1 µM (inactive) | > 18 µM (inactive) | 2.82 µM (inactive) | > 27.9 µM (inactive) | 4.99 µM (inactive) | 10.3 µM (inactive)
16 | Nc1nc(SCc2ccccc2Cl)c2[nH]cnc2n1 |  | > 100 µM (inactive) | 41 µM (inactive) | > 100 µM (inactive) | 69 µM (inactive) | 40.8 µM (inactive) |  |  | > 100 µM (inactive)
17 | CCOC(=O)C(=O)NCCCN1CCOCC1 | > 100 µM (inactive) | > 100 µM (inactive) | > 100 µM (inactive) | > 100 µM (inactive) | > 100 µM (inactive) | > 100 µM (inactive) | > 100 µM (inactive) | > 100 µM (inactive) | > 100 µM (inactive)
18 | COC(=O)c1ccccc1NC(=O)C(=O)CC(=O)CC(c1ccccc1)c1c(O)c2ccccc2oc1=O (configuration not stated) | > 100 µM (inactive) | > 100 µM (inactive) |  |  | > 100 µM (inactive) | > 100 µM (inactive) |  |  | > 100 µM (inactive)
19 | COc1ccc(/C=C/c2cc(OC)c(OCc3ccccc3)c(OC)c2)cc1 | 48.3 µM (inactive) | > 100 µM (inactive) | 71.6 µM (inactive) | > 100 µM (inactive) | 45.6 µM (inactive) | 68.4 µM (inactive) |  | > 100 µM (inactive) | > 100 µM (inactive)
